Consider two compounds from patent US20180078525A1, “COMPOSITION FOR GROWTH PROMOTION, CONTAINING COUMARIC ACID AS ACTIVE INGREDIENT” (KOREA MEDICINE RESEARCH INSTITUTE, INC, priority 2014, published 2018).

The test system of series [1] is Sprague-Dawley rats. In words: Total tibial length by X-ray radiography. The class given is in vivo, rat. As to conditions: after 10-day administration, coumaric acid 100 mg/kg oral, growth hormone 20 μg/kg s.c. The procedure: (§1) In a control group, saline was injected. […] The drug administered to each group is as follows:
To assess the effect of coumaric acid on growth promotion, total tibial length of rats were measured. In Experimental Example <1-1>, after the 10-day administration was completed, right and left tibias (shinbones) were extracted from the control groups and the coumaric acid-fed experimental group according to this invention, all the muscles, fat and ligaments attached to bone tissue were removed, and then the resulting specimen was stored in 70% alcohol, followed by radiographic analysis using an X-ray imaging instrument (OM-FORTE-10121, DK Medical Systems). For the analysis, 55 kV, […] X-ray sources were used. The total tibial length was measured by X-ray radiography.

In series [2] the test system is Sprague-Dawley rats. Put plainly: Analysis of growth plate (heights of proliferative and hypertrophic zones). The class given is in vivo, rat. As to conditions: after 10-day administration; for height of the proliferative zone of the growth plate: average, control group 0.77 mm; for height of the hypertrophic zone of the growth plate: control group 1.10 mm. The procedure: In a control group, saline was injected. […] To assess the growth effect of coumaric acid, the growth plate of each rat was analyzed. In Experimental Example <1-1>, after the 10-day administration was completed, right and left tibias (shinbones) were extracted from the experimental group and the control groups according to this invention, all the muscles, fat and ligaments attached to bone tissue were removed, and then the resulting specimen was stored in 70% alcohol, demineralized, and then dehydrated. Afterward, the resulting specimen was washed with xylene, and then put into a paraffin block. Subsequently, the specimen was cut to a thickness of 4 μm, and then the heights of the proliferative zone and the hypertrophic zone in the growth plate were measured using a BX50 microscope (Olympus).

A further series deals with cartilage cells. Put plainly: Proliferation of cartilage cells in proximal tibia (BrdU staining). The class given is in vivo, rat. The conditions noted are these: rats, after 10-day administration, BrdU 30 mg/kg i.p., 2 hours before autopsy; control group 0.13%. The procedure:
as §1
To confirm whether the effect of coumaric acid on bone growth is caused by the proliferation of cartilage cells, cartilage cells were observed. In Experimental Example <1-1>, after the 10-day administration was completed, rats of the experimental group and the control groups according to this invention were intraperitoneally administered with a dose of 30 mg/kg of 5-bromo-2′-deoxyuridine (BrdU) on the day of the experiment. Two hours later, autopsies were carried out to extract legs, and then the legs were stored in 4% PFA for 24 hours. Following embedding and sectioning, cartilage cells which were stained using a BrdU staining kit (Invitrogen, Carlsbad, Calif., USA) were observed.
Background: Uptake of a labelled nucleoside into DNA is a usual measure of proliferation.

In a further series the test system is growth hormone. In words: Growth hormone levels in blood (Growth Hormone Rat ELISA Kit). The series is classed as in vivo. The conditions noted are these: rat serum, after 10-day administration; control group 3.97 ng/ml. The procedure: as §1
To confirm whether coumaric acid affects the secretion level of the growth hormone, a growth hormone level in the blood of each rat was measured. […] The measurement of the growth hormone levels were carried out using a Growth Hormone Rat ELISA Kit (Life Technologies, KRC5311).
For orientation: ELISA stands for enzyme-linked immunosorbent assay.

Another series relates to IGF-1. In words: IGF-1 protein levels in blood (IGF1 ELISA Kit). The class given is in vivo. As to conditions: rat serum, after 10-day administration; control group 0.84 mg/kg. The procedure:
as §1
To confirm whether coumaric acid affects the secretion levels of IGF-1, […], IGF-1 protein levels were measured. In Experimental Example <1-1>, after the 10-day administration was completed, the rats of the experimental group and the control groups according to this invention were anesthetized on the day of the experiment, and then blood was extracted therefrom using a syringe and centrifuged to obtain serum. The measurement of the IGF-1 levels was carried out using an IGF1 ELISA Kit (Abcam, ab100695).

Series [3] in a line: Changes in the body weight of laboratory animals. As to conditions: male Sprague-Dawley rats, 10-day administration; coumaric acid 100 mg/kg oral, growth hormone 20 μg/kg s.c., once daily.
Experimental: Three-week-old male Sprague-Dawley rats were purchased and acclimated for three days. A breeding environment was altered to a 24-hour pattern, a light/dark cycle was maintained at 12-hour intervals, and antibiotic-free normal solid feed was used. In a control group, saline was injected. In a positive control group, Eutropin Injection (LG Bioscience Korea) was subcutaneously injected at a dose of 20 μg/kg once a day. The coumaric acid of this invention was administered to the oral cavity of all rats of a coumaric acid group, once daily.
After feeding and administering the coumaric acid to the rats for 10 days, autopsies were carried out to confirm the following content.
The measurement was carried out twice a week. The measured values were statistically analyzed to calculate mean±standard deviation.

Turning to “growth hormone: positive control: Eutropin Injection (LG Bioscience Korea), growth hormone, subcutaneously injected at 20 μg/kg once a day”, the “total tibial length vs control group” value with Sprague-Dawley rats [1] is reported as “greater than the control group”. Further, in the series with Sprague-Dawley rats [2], the “height of the proliferative zone of the growth plate” value is listed as 1.13 mm and the “height of the hypertrophic zone of the growth plate” value is recorded as 1.44 mm. Further, the “ratio of BrdU-labeled cells with respect to total cells” value with cartilage cells is given as 0.18%. In addition, the “growth hormone level in blood” value in the series on growth hormone worked out at 11.89 ng/mL. In the series on IGF-1, the IGF-1 protein level is recorded as 1.31 mg/kg.
Turning to `O=C(O)/C=C/c1ccc(O)cc1` [coumaric acid], in the series on Sprague-Dawley rats [2], the “height of the proliferative zone of the growth plate” value was determined as 0.98 mm and the “height of the hypertrophic zone of the growth plate” value came out at 1.27 mm. Besides, the “ratio of BrdU-labeled cells with respect to total cells” value in the series with cartilage cells stood at 0.18%. The “growth hormone level in blood” value in the series with growth hormone came out at 7.62 ng/mL. Further, the IGF-1 protein level with IGF-1 stood at 1.23 mg/kg. For the same compound, the “body weight vs control group” value in series [3] was “almost no difference”.
